Earlier results in patent US7320786B2, “Photodynamic therapy treatment for eye disease” (Light Sciences Oncology, Inc., priority 2000, dated 2008).

Settings: systemically administered photosensitizer, clinical use

Molecule | duration of skin photosensitivity
CCOC(=O)C1=Cc2c3nc(cc4nc(cc5[n-]c(cc6[n-]c2c(C)c6CC)c(C)c5CC)C(C)=C4CC)[C@@H](C)[C@]13CC.[Cl-].[Cl-].[Sn] (racemic) [Purlytin] | several
Oc1cccc(-c2c3nc(c(-c4cccc(O)c4)c4ccc([nH]4)c(-c4cccc(O)c4)c4nc(c(-c5cccc(O)c5)c5ccc2[nH]5)CC4)C=C3)c1 [Foscan] | several
sodium porfimer [Photophrin] | up to 6 weeks
